Test results published in patent US6403615B1, “2-Aryl-3-aroylbenzo {b} thiophenes useful for the treatment of estrogen deprivation syndrome” (Eli Lilly and Company, priority 1997, dated 2002).

Legend:
[1] = system: ovariectomized (OVX) rats; assay: Osteoporosis (bone mineral density) in ovariectomized rat model; type: in vivo, Sprague Dawley rats; details: oral in 20% hydroxypropyl β-cyclodextrin, daily for 35 days, femur x-ray image analysis, tibia quantitative computed tomography
From the text: Seventy-five day old female Sprague Dawley rats (weight range of 200g to 225 g) are obtained from Charles River Laboratories (Portage, Mich.). The animals are either bilaterally ovariectomized (OVX) or exposed to a Sham surgical procedure at Charles River Laboratories, and then shipped after one week. Upon arrival, they are housed in metal hanging cages in groups of 3 or 4 per cage and have ad libitum access to food (calcium content approximately 0.5%) and water for one week. Room temperature is maintained at 22.2°±1.7° C. with a minimum relative humidity of 40%. The photoperiod in the room is 12 hours light and 12 hours dark.
Following the General Procedure, infra, the rats are treated daily for 35 days (6 rats per treatment group) and sacrificed by carbon dioxide asphyxiation on the 36th day. The 35 day time period is sufficient to allow maximal reduction in bone density, measured as described herein. At the time of sacrifice, the uteri are removed, dissected free of extraneous tissue, and the fluid contents are expelled before determination of wet weight in order to confirm estrogen deficiency associated with complete ovariectomy. […]
The right femurs are excised and digitilized x-rays generated and analyzed by an image analysis program (NIH image) at the distal metaphysis. The proximal aspect of the tibiae from these animals are also scanned by quantitative computed tomography.

Structure (SMILES) | melting point [°C] | loss of bone mineral density [1]
COc1ccc(-c2sc3cc(OC)ccc3c2C(=O)c2ccc(O)cc2)cc1 [Example 3, 2-(4-Methoxyphenyl)-3-(4-Hydroxybenzoyl)-6-Methoxybenzo[b]thiophene] | 114 to 116 | 
C#C[C@]1(O)CC[C@H]2[C@@H]3CCc4cc(O)ccc4[C@H]3CC[C@@]21C [ethynyl estradiol, 17-α-ethynyl estradiol] |  | a reduction in the loss of bone mineral density
COc1ccc(C(=O)c2c(-c3ccc(O)cc3)sc3cc(O)ccc23)cc1 [Example 2, 2-(4-Hydroxyphenyl)-3-(4-Methoxybenzoyl)-6-Hydroxybenzo[b]thiophene] | 138 to 140 | 
